From patent US20090088473A1, “METHOD FOR SCREENING OF PROSTAGLANDIN COMPOUNDS COMPRISING AN OPTIMAL FORMULATION FOR THE ENHANCEMENT OF HAIR GROWTH AND THE STIMULATION OF FOLLICULAR ANAGEN AND FORMULATIONS RESULTING THEREFROM” (CAYMAN CHEMICAL COMPANY, priority 2007, published 2009)

Target: T1, human FP receptor (Homo sapiens, UniProt P43088)
T1 construct: expressed in transfected cells; host or cells: HEK 293 (stably transfected)
Assay: Total intracellular inositol phosphate (InsP) accumulation in HEK 293 cells stably transfected with the human FP receptor
Type: cell-based
Settings: FIG. 2; HEK 293 cells stably transfected with human FP receptor; free acid forms; rank among the prostaglandin analogs tested
Text: An exemplary assay method may be described that correlates the ability of test compounds (FP receptor agonists) to induce hair growth with the ability of an established FP receptor agonist, in this case Bimatoprost free acid, to activate the FP receptor. The dose-dependent release of Inositol triphosphate by test compounds compared to the dose-dependent response of Bimatoprost free acid, an established eye lash-enhancing compound, may provide a structure activity relationship that may be used to predict the degree to which a given compound will promote eye lash growth.

T1 sequence (P43088 whole entry): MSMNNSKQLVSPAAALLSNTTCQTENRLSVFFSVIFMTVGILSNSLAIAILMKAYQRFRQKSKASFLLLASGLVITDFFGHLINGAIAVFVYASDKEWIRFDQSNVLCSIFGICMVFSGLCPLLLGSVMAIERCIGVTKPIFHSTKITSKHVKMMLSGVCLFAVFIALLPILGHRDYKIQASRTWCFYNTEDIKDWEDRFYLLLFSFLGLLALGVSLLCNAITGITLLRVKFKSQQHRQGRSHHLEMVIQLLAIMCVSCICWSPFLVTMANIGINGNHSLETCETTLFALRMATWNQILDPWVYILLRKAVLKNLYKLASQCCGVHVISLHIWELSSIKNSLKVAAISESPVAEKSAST

Row | Compound | dose-dependent release of inositol triphosphate
1 | O=C(O)CCC/C=C\C[C@@H]1[C@@H](/C=C/[C@@H](O)COc2cccc(C(F)(F)F)c2)[C@H](O)C[C@@H]1O [(+) fluprestonol] | lowest
2 | O=C(O)CCCC=CCC1C(O)CC(O)C1C=CC(O)COc1ccccc1 (stereo not drawn) [16-phenoxy tetranor PGF2α analog, 16-phenoxy tetranor PGF2α] | highest
